Starred links: 1 amine or outer side, 2 acyl side, 3 side chain; linkers in the order of their positions; H or OH if unused. Non-standard residues stand in square brackets, D forms with d. Residues, ends and D or L forms follow the SMILES beside them. Groups on a side chain read outwards from the residue. *: point of attachment. C20 diacid = O=C(O)CCCCCCCCCCCCCCCCCCC(=O)*; C18 diacid = O=C(O)CCCCCCCCCCCCCCCCC(=O)*; γGlu = O=C(O)[C@H](CCC(=O)[*:2])N[*:1]; Aib = CC(C)(N)C(=O)O
Experiment: PK measurements for half life assessment in pigs
Type: in vivo, pig
Settings: male, large white, pig, plasma, sc, single subcutaneous injection, time from tmax to half of Cmax, typically mean of four animals
Experimental: Male large white pigs receive a single subcutaneous injection of the test compound at the start of study (0 hours). Repeated blood samples were taken from the pig over the proceeding 168 hours and plasma separated and stored at −20 to −80° C. Plasma concentration of the test compound was quantified using a radioimmunoassay or mass spectrum analysis. Time taken from tmax to half of Cmax was calculated and represents the half-life (t½) of the compound. Typically, the presented t½ is the mean of four separate animals.

half-life	Structure (SMILES)
84 h	CC[C@H](C)[C@H](NC(=O)[C@H](Cc1ccccc1)NC(=O)[C@H](CCC(=O)O)NC(=O)[C@H](Cc1c[nH]cn1)NC(=O)[C@H](C)NC(=O)[C@H](CCCNC(=N)N)NC(=O)[C@H](CCCCN)NC(=O)[C@H](C)NC(=O)[C@H](CC(=O)O)NC(=O)[C@H](CC(C)C)NC(=O)[C@H](Cc1ccc(O)cc1)NC(=O)[C@H](CCCCN)NC(=O)[C@H](CO)NC(=O)[C@H](Cc1ccc(O)cc1)NC(=O)[C@H](CC(=O)O)NC(=O)[C@H](CO)NC(=O)[C@@H](NC(=O)[C@H](Cc1ccccc1)NC(=O)[C@@H](NC(=O)CNC(=O)[C@H](Cc1c[nH]cn1)NC(=O)C(C)(C)NC(=O)[C@@H](N)Cc1c[nH]cn1)[C@@H](C)O)[C@@H](C)O)C(=O)N[C@@H](CCC(=O)O)C(=O)N[C@@H](Cc1c[nH]c2ccccc12)C(=O)N[C@@H](CC(C)C)C(=O)N[C@@H](CC(C)C)C(=O)N[C@@H](CCC(N)=O)C(=O)N[C@@H](CO)C(=O)N[C@@H](Cc1c[nH]cn1)C(=O)N[C@@H](CCC(N)=O)C(=O)N[C@@H](CCC(N)=O)C(=O)N[C@@H](Cc1c[nH]cn1)C(=O)N[C@@H](CCC(=O)O)C(=O)N[C@@H](CO)C(=O)N1CCC[C@H]1C(=O)N1CCC[C@H]1C(=O)N1CCC[C@H]1C(=O)N[C@@H](CCCCNC(=O)[C@H](CO)NC(=O)CNC(=O)CC[C@H](NC(=O)CCCCCCCCCCCCCCCCC(=O)O)C(=O)O)C(=O)O [Example 587] (H-H[Aib]HGTFTSDYSKYLDAKRAHEFIEWLLQSHQQHESPPPK([Ser-Gly-γGlu-C18 diacid])-OH)
65 h	CC[C@H](C)[C@H](NC(=O)[C@H](Cc1ccccc1)NC(=O)[C@H](CCC(=O)O)NC(=O)[C@H](Cc1c[nH]cn1)NC(=O)[C@H](C)NC(=O)[C@H](CCCNC(=N)N)NC(=O)[C@H](CCCCN)NC(=O)[C@H](C)NC(=O)[C@H](CC(=O)O)NC(=O)[C@H](CC(C)C)NC(=O)[C@H](Cc1ccc(O)cc1)NC(=O)[C@H](CCCCN)NC(=O)[C@H](CO)NC(=O)[C@H](Cc1ccc(O)cc1)NC(=O)[C@H](CC(=O)O)NC(=O)[C@H](CO)NC(=O)[C@@H](NC(=O)[C@H](Cc1ccccc1)NC(=O)[C@@H](NC(=O)CNC(=O)[C@H](Cc1c[nH]cn1)NC(=O)C(C)(C)NC(=O)[C@@H](N)Cc1c[nH]cn1)[C@@H](C)O)[C@@H](C)O)C(=O)N[C@@H](CCC(=O)O)C(=O)N[C@@H](Cc1c[nH]c2ccccc12)C(=O)N[C@@H](CC(C)C)C(=O)N[C@@H](CC(C)C)C(=O)N[C@@H](CCC(N)=O)C(=O)N[C@@H](CO)C(=O)N[C@@H](Cc1c[nH]cn1)C(=O)N[C@@H](CCC(N)=O)C(=O)N[C@@H](CCC(N)=O)C(=O)N[C@@H](Cc1c[nH]cn1)C(=O)N[C@@H](CCC(=O)O)C(=O)N[C@@H](CO)C(=O)N1CCC[C@H]1C(=O)N1CCC[C@H]1C(=O)N1CCC[C@H]1C(=O)N[C@@H](CCCCNC(=O)CC[C@H](NC(=O)CCCCCCCCCCCCCCCCCCC(=O)O)C(=O)O)C(=O)O [Example 588] (H-H[Aib]HGTFTSDYSKYLDAKRAHEFIEWLLQSHQQHESPPPK([γGlu-C20 diacid])-OH)
116 h	CC[C@H](C)[C@H](NC(=O)[C@H](Cc1ccccc1)NC(=O)[C@H](CCC(=O)O)NC(=O)[C@H](Cc1c[nH]cn1)NC(=O)[C@H](C)NC(=O)[C@H](CCCNC(=N)N)NC(=O)[C@H](CCCCN)NC(=O)[C@H](C)NC(=O)[C@H](CC(=O)O)NC(=O)[C@H](CC(C)C)NC(=O)[C@H](Cc1ccc(O)cc1)NC(=O)[C@H](CCCCN)NC(=O)[C@H](CO)NC(=O)[C@H](Cc1ccc(O)cc1)NC(=O)[C@H](CC(=O)O)NC(=O)[C@H](CO)NC(=O)[C@@H](NC(=O)[C@H](Cc1ccccc1)NC(=O)[C@@H](NC(=O)CNC(=O)[C@H](Cc1c[nH]cn1)NC(=O)C(C)(C)NC(=O)[C@@H](N)Cc1c[nH]cn1)[C@@H](C)O)[C@@H](C)O)C(=O)N[C@@H](CCC(=O)O)C(=O)N[C@@H](Cc1c[nH]c2ccccc12)C(=O)N[C@@H](CC(C)C)C(=O)N[C@@H](CC(C)C)C(=O)N[C@@H](CCC(N)=O)C(=O)N[C@@H](CO)C(=O)N[C@@H](Cc1c[nH]cn1)C(=O)N[C@@H](CCC(N)=O)C(=O)N[C@@H](CCC(N)=O)C(=O)N[C@@H](Cc1c[nH]cn1)C(=O)N[C@@H](CCC(=O)O)C(=O)N[C@@H](CO)C(=O)N1CCC[C@H]1C(=O)N1CCC[C@H]1C(=O)N1CCC[C@H]1C(=O)NCC(=O)N[C@@H](CCCCNC(=O)[C@H](CC(N)=O)NC(=O)CC[C@H](NC(=O)CCCCCCCCCCCCCCCCCCC(=O)O)C(=O)O)C(=O)O [Example 652] (H-H[Aib]HGTFTSDYSKYLDAKRAHEFIEWLLQSHQQHESPPPGK([Asn-γGlu-C20 diacid])-OH)

Continued, molecule first:

Structure (SMILES)	half-life
CC[C@H](C)[C@H](NC(=O)[C@H](Cc1ccccc1)NC(=O)[C@H](CCC(=O)O)NC(=O)[C@H](CCC(N)=O)NC(=O)[C@H](C)NC(=O)[C@H](CCCNC(=N)N)NC(=O)[C@H](CCCCN)NC(=O)[C@H](C)NC(=O)[C@H](CC(=O)O)NC(=O)[C@H](CC(C)C)NC(=O)[C@H](Cc1ccc(O)cc1)NC(=O)[C@H](CCCCN)NC(=O)[C@H](CO)NC(=O)[C@H](Cc1ccc(O)cc1)NC(=O)[C@H](CC(=O)O)NC(=O)[C@H](CO)NC(=O)[C@@H](NC(=O)[C@H](Cc1ccccc1)NC(=O)[C@@H](NC(=O)CNC(=O)[C@H](Cc1c[nH]cn1)NC(=O)C(C)(C)NC(=O)[C@@H](N)Cc1c[nH]cn1)[C@@H](C)O)[C@@H](C)O)C(=O)N[C@@H](CCC(=O)O)C(=O)N[C@@H](Cc1c[nH]c2ccccc12)C(=O)N[C@@H](CC(C)C)C(=O)N[C@@H](CC(C)C)C(=O)N[C@@H](CCC(N)=O)C(=O)N[C@@H](CO)C(=O)N[C@@H](Cc1c[nH]cn1)C(=O)N[C@@H](Cc1c[nH]cn1)C(=O)N[C@@H](CCC(N)=O)C(=O)N[C@@H](CCC(N)=O)C(=O)N[C@@H](Cc1c[nH]cn1)C(=O)N[C@@H](CCC(=O)O)C(=O)N[C@@H](CO)C(=O)N1CCC[C@H]1C(=O)N1CCC[C@H]1C(=O)N1CCC[C@H]1C(=O)N[C@@H](CCCCNC(=O)[C@H](CC(N)=O)NC(=O)CC[C@H](NC(=O)CCCCCCCCCCCCCCCCCCC(=O)O)C(=O)O)C(=O)O [Example 549] (H-H[Aib]HGTFTSDYSKYLDAKRAQEFIEWLLQSHHQQHESPPPK([Asn-γGlu-C20 diacid])-OH)	110 h
CC[C@H](C)[C@H](NC(=O)[C@H](Cc1ccccc1)NC(=O)[C@H](CCC(=O)O)NC(=O)[C@H](CCC(N)=O)NC(=O)[C@H](C)NC(=O)[C@H](CCCNC(=N)N)NC(=O)[C@H](CCCCN)NC(=O)[C@H](C)NC(=O)[C@H](CC(=O)O)NC(=O)[C@H](CC(C)C)NC(=O)[C@H](Cc1ccc(O)cc1)NC(=O)[C@H](CCCCN)NC(=O)[C@H](CO)NC(=O)[C@H](Cc1ccc(O)cc1)NC(=O)[C@H](CC(=O)O)NC(=O)[C@H](CO)NC(=O)[C@@H](NC(=O)[C@H](Cc1ccccc1)NC(=O)[C@@H](NC(=O)CNC(=O)[C@H](Cc1c[nH]cn1)NC(=O)C(C)(C)NC(=O)[C@@H](N)Cc1c[nH]cn1)[C@@H](C)O)[C@@H](C)O)C(=O)N[C@@H](CCC(=O)O)C(=O)N[C@@H](Cc1c[nH]c2ccccc12)C(=O)N[C@@H](CC(C)C)C(=O)N[C@@H](CC(C)C)C(=O)N[C@@H](CCC(N)=O)C(=O)N[C@@H](CO)C(=O)N[C@@H](Cc1c[nH]cn1)C(=O)N[C@@H](Cc1c[nH]cn1)C(=O)N[C@@H](CCC(N)=O)C(=O)N[C@@H](CCC(N)=O)C(=O)N[C@@H](Cc1c[nH]cn1)C(=O)N[C@@H](CCC(=O)O)C(=O)N[C@@H](CO)C(=O)N1CCC[C@H]1C(=O)N1CCC[C@H]1C(=O)N1CCC[C@H]1C(=O)N[C@@H](CCCCNC(=O)[C@H](Cc1c[nH]cn1)NC(=O)[C@H](CC(N)=O)NC(=O)CC[C@H](NC(=O)CCCCCCCCCCCCCCCCC(=O)O)C(=O)O)C(=O)O [Example 649] (H-H[Aib]HGTFTSDYSKYLDAKRAQEFIEWLLQSHHQQHESPPPK([His-Asn-γGlu-C18 diacid])-OH)	84 h
CC[C@H](C)[C@H](NC(=O)[C@H](Cc1ccccc1)NC(=O)[C@H](CCC(=O)O)NC(=O)[C@H](CCCNC(=N)N)NC(=O)[C@H](C)NC(=O)[C@H](CCCNC(=N)N)NC(=O)[C@H](CCCCN)NC(=O)[C@H](C)NC(=O)[C@H](CC(=O)O)NC(=O)[C@H](CC(C)C)NC(=O)[C@H](Cc1ccc(O)cc1)NC(=O)[C@H](CCCCN)NC(=O)[C@H](CO)NC(=O)[C@H](Cc1ccc(O)cc1)NC(=O)[C@H](CC(=O)O)NC(=O)[C@H](CO)NC(=O)[C@@H](NC(=O)[C@H](Cc1ccccc1)NC(=O)[C@@H](NC(=O)CNC(=O)[C@H](Cc1c[nH]cn1)NC(=O)C(C)(C)NC(=O)[C@@H](N)Cc1c[nH]cn1)[C@@H](C)O)[C@@H](C)O)C(=O)N[C@@H](CCC(=O)O)C(=O)N[C@@H](Cc1c[nH]c2ccccc12)C(=O)N[C@@H](CC(C)C)C(=O)N[C@@H](CC(C)C)C(=O)N[C@@H](CCC(N)=O)C(=O)N[C@@H](CO)C(=O)N[C@@H](Cc1c[nH]cn1)C(=O)N[C@@H](CCC(N)=O)C(=O)N[C@@H](CCC(N)=O)C(=O)N[C@@H](Cc1c[nH]cn1)C(=O)N[C@@H](CCC(=O)O)C(=O)N[C@@H](CO)C(=O)N1CCC[C@H]1C(=O)N1CCC[C@H]1C(=O)N1CCC[C@H]1C(=O)NCC(=O)N[C@@H](CCCCNC(=O)[C@H](CC(N)=O)NC(=O)CC[C@H](NC(=O)CCCCCCCCCCCCCCCCCCC(=O)O)C(=O)O)C(=O)O [Example 704] (H-H[Aib]HGTFTSDYSKYLDAKRAREFIEWLLQSHQQHESPPPGK([Asn-γGlu-C20 diacid])-OH)	96 h

Reference: US12516095B2, “Peptide hormone analogues” (IP2IPO INNOVATIONS LIMITED, priority 2019, dated 2026)
